According to patent publication US20120149724A1, “MODULATING ENDOGENOUS BETA-ENDORPHIN LEVELS” (THE GENERAL HOSPITAL CORPORATION, priority 2009, published 2012):
“Also recorded” adds a separate entry of the source.

Key:
Type in all cases: in vivo
[1] = tested on: tail-irradiated C57BL/6 mice; test: Straub Tail scoring in tail-irradiated mice; conditions: 10 mg/kg ip after the 17th tail irradiation (5 Gy/day); rescored 20 minutes after injection
Method: To obtain the data shown in FIG. 3C, after the 17th irradiation dose, the mice were measured for Straub Tail scores and the irradiated mice were divided into two subgroups. The first subgroup was injected with 10 mg/kg naloxone ip. The second subgroup was injected with saline ip. Straub Tail scores were then rescored 20 minutes after the injection. FIG. 3C uses data obtained by Wild type female mice. […] The saline injection has no effect on the Straub Tail phenotype.
Mice undergoing tail radiation or mock treatment were assessed for Straub Tail according to a slightly modified method of Zarrindast, M. R., Ghadimi, M., Ramezani-Tehrani, B., and Sahebgharani, M. Effect of GABA Receptor Agonists or Antagonists on Morphine-induced Straub Tail in Mice. […] 2006; 116(8): 963-73, by which Straub tail is scored on a scale of 0-2 according to the angle of elevation of the tail from the horizontal plane (0=tail relaxed and no elevation; 1=tail is rigid and slightly elevation 1-10° from horizontal; 1.5=11-45 degree elevation with rigidity at the base of the tail; 2=46-90° elevation with rigidity at the base of the tail). For each measurement, each mouse is scored every 10 seconds for 1 minute, and the final score for each mouse at a given measurement point is the average of these 7 values. […] After the 17th irradiation, all mice were scored as described above immediately following tail radiation. […]

[2] = tested on: chronically UV-irradiated mice; test: naloxone-induced somatic symptoms of opiate withdrawal after chronic UVB exposure; conditions: UVB 50 mJ/cm^2/day for 6 weeks, 2 mg/kg sc, counted over 25 minutes
Method: To obtain the data shown in FIG. 9, mice were either exposed to 50 mJ/cm^2/day UVB radiation, or mock-exposed 5 days per week for 6 weeks. These two groups of mice were divided into subgroups and either injected with a dose of 2 mg/kg naloxone(sc) or saline. […] The symptoms observed include wet dog shake, paw tremor, jumping, grooming, teeth chatter, rearing and diarrhea.
This example assesses physical dependence to opiate agents by evaluating withdrawal symptoms in mice upon acute administration of an opiate antagonist. In mice, symptoms of opiate withdrawal include shaking vigorously (called a “wet-dog shake”), paw tremors, teeth chattering, jumping, rearing, increased grooming, and diarrhea. The occurrence of these symptoms were measured in mice either exposed to 50 mJ/cm^2/day UVB radiation 5 days per week for 6 weeks or mock-exposed on the same schedule. One subgroup of each group of mice was injected with 2 mg/kg subcutaneous naloxone and number of occurrences of each of the above-mentioned symptoms was counted over 25 minutes immediately following naloxone injection. The other subgroup was administered a subcutaneous injection of saline before the 25-minute observation period.

[3] = tested on: Sprague-Dawley rats; test: actimetry (locomotor activity) in rats over a daily tail radiation regimen; conditions: 2 Gy/day tail radiation for 6 weeks; 1 mg/kg ip 15 minutes before actimetry
Method: Eight week old male Sprague-Dawley rats underwent a 6-week regimen of 2 Gy/day daily tail radiation of mock exposure. Prior to the start of the regimen, baseline activity was recorded as total distance traveled in 30 minutes in the actimetry chamber. During the regimen and for 2 weeks following the end of the regimen, actimetry measurements were made once per week, and for these measurements, half of the tail-irradiated rats and half of the mock-exposed rats were injected with naloxone (1 mg/kg, ip) 15 minutes prior to actimetry testing, and the other half of tail-irradiated and mock-exposed animals were injected with saline (ip) 15 minutes prior to actimetry testing. In addition, blood was drawn prior to, once weekly during, and once weekly for 2 weeks following the end of the regimen for β-endorphin measurement. […] Top graphs show results for tail-irradiated rats, bottom graphs show results for mock-exposed controls. Left side graphs show results for rats injected with saline prior to actimetry testing, right side graphs show results for rats injected with naloxone prior to actimetry testing. […] Error bars indicate +/−SEM, and (*) indicates p<0.05 by two-tailed Student's t-test with respect to baseline values for that group.

For C=CCN1CC[C@]23c4c5ccc(O)c4O[C@H]2C(=O)CC[C@@]3(O)[C@H]1C5 [naloxone], which “effect on Straub Tail score” value [1] is on record?
Its value is “abolished to near mock-treated levels; also recorded: reversed the Straub Tail, similar to mock-treated levels”.

What about the jumping behavior [2] of the same molecule?
The jumping behavior was “only group to show any jumping behavior at all”.

What about the “occurrences of wet dog shakes, teeth chattering, paw tremoring, grooming and rearing” value ([2]; compared to all other groups) of the same molecule?
The value was “significantly more”.

What about the “effect on radiation-induced lethargy (total distance traveled in 30 minutes)” value [3] of the same molecule?
The value was “Naloxone-Reversible Lethargy”.
